Data set [1] has as its system PD1-ss+10aa/Gaussia Luciferase. Put plainly: Dox-Induced PD1-ss-Gluc Assay. The format is cell-based. The settings on record: 24 hr Dox induction; 293FRT/TO cells; read-out: 24 hr Dox Inducible PD1ssGluc 293FRT/TO: Mean IC50. The essentials: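 Gaussia luciferase fused downstream of the PD1 signal peptide plus 10 residues was expressed on doxycycline induction in stably transfected Flp-In 293 T-REx cells. Compounds were added with doxycycline and incubated at 37 °C, 5% CO2.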

For data set [2], the system named is TNFα-FL/Gaussia Luciferase. Put plainly: Dox Induced TNFα-FL-Gluc Assay. Conditions: for IC50: 24 hr Dox induction, 293FRT/TO cells, read-out: 24 hr Dox Inducible TNFaFLGluc 293FRT/TO: Mean IC50; for 24 hr Dox Inducible TNFaFLGluc 293FRT/TO: TNF/PD1: ratio of TNFaFLGluc IC50 to PD1ssGluc IC50. The format is cell-based. The essentials: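 Stereoisomer mixtures were tested where stereochemistry is not drawn. Induction used doxycycline added together with compound dilutions in DMSO/media to Flp-In 293 T-REx cells carrying a T-REx-regulated TNFα (aa 1-233)-Gaussia luciferase construct, then incubated at 37 °C, 5% CO2.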

The subject of data set [3] is HER3-ss+4aa/Gaussia Luciferase. The data set is described as follows: Dox-Induced Her3-ss-Gluc Assay. In kind it is cell-based. The settings on record: 24 hr Dox induction; 293FRT/TO cells; read-out: 24 hr Dox Inducible Her3(ss + 4)Gluc 293FRT/TO: Mean IC50. The essentials: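 Cells were seeded a day ahead, then given compound diluted in DMSO/media with doxycycline to induce expression of the HER3 signal sequence (+4 aa)–Gaussia luciferase fusion. Incubation was at 37° C., 5% CO2, in a stable Flp-In 293 T-REx line.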

Data set [4] deals with IL-2-FL/Gaussia Luciferase. Put plainly: Dox Induced IL2-FL-Gluc Assay. The settings on record: for IC50: 24 hr Dox induction, 293FRT/TO cells, read-out: 24 hr Dox Inducible IL2FLGluc 293FRT/TO: Mean IC50; for 24 hr Dox Inducible IL2FLGluc 293FRT/TO: IL2/PD1: ratio of IL2FLGluc IC50 to PD1ssGluc IC50. In kind it is cell-based. The essentials: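 Cells are plated one day ahead, then receive compound dilutions in DMSO/media with doxycycline and incubate at 37° C, 5% CO2. They are Flp-In 293 T-REx cells expressing a full-length IL-2 (amino acids 1-153)–Gaussia luciferase fusion under T-REx control.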

The test system of data set [5] is multiple myeloma cell line NCI-H929. The data set is described as follows: H929 Cell Viability Assay. In kind it is cell-based, human. The settings on record: Homo sapiens, NCI-H929, 48 h, NCI-H929 cells, Celltiter-Glo. The gist of the method:
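Luminescent ATP detection (CellTiter-Glo) after 48 hours of compound exposure measures viability. Cells were plated in RPMI 1640 containing 10% fetal bovine serum and kept at 37° C under 5% CO2.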

Data set [6] has as its system multiple myeloma cell line U266B1. Put plainly: U266 Cell Viability Assay. Conditions: Homo sapiens, U-266, 48 h, U266B1 cells, Celltiter-Glo. The format is cell-based, human. The gist of the method:
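Steps: culture in RPMI 1640 plus 10% FBS and 2 mM glutamine; plate and add compound dilutions; incubate 48 hours at 37° C., 5% CO2; add CellTiter-Glo and quantify luciferase signal.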

The nature of data set [7]: Liver Microsome Stability Assay (rat). Conditions: rat liver microsomes, with NADPH, 1.0 uM compound.
Protocol: (§1) Stability of a compound was assessed in the presence of liver microsomes from various sources—mouse, rat, monkey and human liver microsomes. 1.0 uM compound, 0.4% DMSO in 0.1 M Potassium Phosphate with 1.0 mg/mL liver microsomes, were incubated at 37° C. with or without 1 mM NADPH. The samples were quenched at 0, and 30 minutes.
Data set [8] in a line: Liver Microsome Stability Assay (mouse). Conditions: mouse liver microsomes, with NADPH, 1.0 uM compound.
Protocol: as §1
Data set [9] can be described thus: Liver Microsome Stability Assay (human). Conditions: human liver microsomes, with NADPH, 1.0 uM compound.
Protocol: as §1
Data set [10] can be described thus: Liver Microsome Stability Assay (monkey). Conditions: monkey liver microsomes, with NADPH, 1.0 uM compound.
Protocol: as §1

With `O=C(Nc1nc([C@H]2CCCN2c2ccc(OC3CCNCC3F)cc2)cs1)c1cccn1Cc1ccnc(F)c1` (stereo partly drawn) [Compound A107, N-(4-((2R)-1-(4-((3-fluoropiperidin-4-yl)oxy)phenyl)pyrrolidin-2-yl)thiazol-2-yl)-1-((2-fluoropyridin-4-yl)methyl)-1H-pyrrole-2-carboxamide], the IC50 in data set [1] was 0.205 µM; in [2], 2.91 µM; in data set [3], 0.322 µM; in data set [4] it was 0.462 µM. The “24 hr Dox Inducible TNFaFLGluc 293FRT/TO: TNF/PD1” value in data set [2] is recorded as 14.2. Moreover, the “24 hr Dox Inducible IL2FLGluc 293FRT/TO: IL2/PD1” value in data set [4] is recorded as 2.3. Further, the figures for the EC50 in [5] and in [6] were 4.55 µM and 7.28 µM, respectively. Moreover, the “Liver Microsome Stability (Multiple Species): Rat - % Remaining after 30 min w/NADPH” value in [7] was found to be 64.6%. In addition, the “Liver Microsome Stability (Multiple Species): Mouse - % Remaining after 30 min w/NADPH” value in data set [8] was 6%. For the same molecule, the “Liver Microsome Stability (Multiple Species): Human - % Remaining after 30 min w/NADPH” value in [9] is reported as 23.1%. Also, the “Liver Microsome Stability (Multiple Species): Monkey - % Remaining after 30 min w/NADPH” value in data set [10] worked out at 12.7%.
`CC(=O)N1CCC(Oc2ccc(N3CCC[C@@H]3c3csc(NC(=O)c4cccn4Cc4ccnc(F)c4)n3)cc2)C(F)C1` (stereo partly drawn) [Compound A108, N-(4-((2R)-1-(4-((1-acetyl-3-fluoropiperidin-4-yl)oxy)phenyl)pyrrolidin-2-yl)thiazol-2-yl)-1-((2-fluoropyridin-4-yl)methyl)-1H-pyrrole-2-carboxamide]: the IC50 in data set [1] is 0.0337 µM; in data set [2], 0.283 µM; in data set [3], 0.0729 µM; in data set [4], 0.0713 µM. Further, in data set [2], the “24 hr Dox Inducible TNFaFLGluc 293FRT/TO: TNF/PD1” value is reported as 8.39. Besides, the “24 hr Dox Inducible IL2FLGluc 293FRT/TO: IL2/PD1” value in [4] turned out to be 2.1. Further, the EC50 was 1.28 µM in data set [5] and greater than 25 µM in [6]. Also, the “Liver Microsome Stability (Multiple Species): Rat - % Remaining after 30 min w/NADPH” value in data set [7] turned out to be 39%. Besides, the “Liver Microsome Stability (Multiple Species): Mouse - % Remaining after 30 min w/NADPH” value in data set [8] is 17%. For the same molecule, the “Liver Microsome Stability (Multiple Species): Human - % Remaining after 30 min w/NADPH” value in data set [9] is 13.2%. Besides, in data set [10], the “Liver Microsome Stability (Multiple Species): Monkey - % Remaining after 30 min w/NADPH” value came out at 0.49%.
In the case of `O=C(Nc1nc([C@H]2CCCN2c2ccc(OC3CN(C(=O)C4CC4)C3)cc2)cs1)c1cccn1Cc1ccnc(F)c1` [Compound A109, (R)-N-(4-(1-(4-((1-(cyclopropanecarbonyl)azetidin-3-yl)oxy)phenyl)pyrrolidin-2-yl)thiazol-2-yl)-1-((2-fluoropyridin-4-yl)methyl)-1H-pyrrole-2-carboxamide], the IC50 was found to be 0.031 µM in [1], 0.302 µM in data set [2], 0.0393 µM in [3] and 0.0907 µM in data set [4]. In addition, the “24 hr Dox Inducible TNFaFLGluc 293FRT/TO: TNF/PD1” value in [2] is recorded as 9.75. For the same molecule, the “24 hr Dox Inducible IL2FLGluc 293FRT/TO: IL2/PD1” value in data set [4] was 2.9. The EC50 in [5] was 1.23 µM; in data set [6], greater than 25 µM. In [7], the “Liver Microsome Stability (Multiple Species): Rat - % Remaining after 30 min w/NADPH” value stood at 55.6%. In addition, in [8], the “Liver Microsome Stability (Multiple Species): Mouse - % Remaining after 30 min w/NADPH” value worked out at 21%. Besides, the “Liver Microsome Stability (Multiple Species): Human - % Remaining after 30 min w/NADPH” value in data set [9] was found to be 13.8%. Also, the “Liver Microsome Stability (Multiple Species): Monkey - % Remaining after 30 min w/NADPH” value in [10] was determined as 2.02%.
As to `O=C(Nc1nc([C@H]2CCCN2c2ccc(OC3CN(C(=O)CO)C3)cc2)cs1)c1cccn1Cc1ccnc(F)c1` [Compound A110, (R)-1-((2-fluoropyridin-4-yl)methyl)-N-(4-(1-(4-((1-(2-hydroxyacetyl)azetidin-3-yl)oxy)phenyl)pyrrolidin-2-yl)thiazol-2-yl)-1H-pyrrole-2-carboxamide], the IC50 in [1] is 0.0232 µM; in [2], 0.31 µM; in [3] it was 0.0364 µM; in [4], 0.0798 µM. For the same molecule, in [2], the “24 hr Dox Inducible TNFaFLGluc 293FRT/TO: TNF/PD1” value amounted to 13.4. In addition, the “24 hr Dox Inducible IL2FLGluc 293FRT/TO: IL2/PD1” value in data set [4] is recorded as 3.4. The EC50 in data set [5] was 0.884 µM; in data set [6], greater than 25 µM. In data set [7], the “Liver Microsome Stability (Multiple Species): Rat - % Remaining after 30 min w/NADPH” value worked out at 55.7%. Further, in [8], the “Liver Microsome Stability (Multiple Species): Mouse - % Remaining after 30 min w/NADPH” value was 31.2%. In data set [9], the “Liver Microsome Stability (Multiple Species): Human - % Remaining after 30 min w/NADPH” value came out at 10.5%. Further, the “Liver Microsome Stability (Multiple Species): Monkey - % Remaining after 30 min w/NADPH” value in [10] is listed as 4.58%.
Regarding `C[C@@H](O)c1ccc(N2CCC[C@@H]2c2csc(NC(=O)c3cccn3Cc3ccnc(F)c3)n2)cc1` [Compound A111, 1-((2-fluoropyridin-4-yl)methyl)-N-(4-((R)-1-(4-((R)-1-hydroxyethyl)phenyl)pyrrolidin-2-yl)thiazol-2-yl)-1H-pyrrole-2-carboxamide], the IC50 in [1] amounted to 0.00792 µM; in [2], 0.0945 µM; in [3], 0.0136 µM; in [4], 0.0163 µM. Further, the “24 hr Dox Inducible TNFaFLGluc 293FRT/TO: TNF/PD1” value in data set [2] is 11.9. For the same molecule, the “24 hr Dox Inducible IL2FLGluc 293FRT/TO: IL2/PD1” value in data set [4] is 2.1. Besides, the EC50 in data set [5] is 0.422 µM; in data set [6], greater than 25 µM. The “Liver Microsome Stability (Multiple Species): Rat - % Remaining after 30 min w/NADPH” value in data set [7] was 7.97%. The “Liver Microsome Stability (Multiple Species): Mouse - % Remaining after 30 min w/NADPH” value in [8] stood at 12.7%. In addition, in data set [9], the “Liver Microsome Stability (Multiple Species): Human - % Remaining after 30 min w/NADPH” value amounted to 2.78%. In addition, the “Liver Microsome Stability (Multiple Species): Monkey - % Remaining after 30 min w/NADPH” value in data set [10] worked out at 3.48%.
On to `C[C@H](O)c1ccc(N2CCC[C@@H]2c2csc(NC(=O)c3cccn3Cc3ccnc(F)c3)n2)cc1` [Compound A112, 1-((2-fluoropyridin-4-yl)methyl)-N-(4-((R)-1-(4-((S)-1-hydroxyethyl)phenyl)pyrrolidin-2-yl)thiazol-2-yl)-1H-pyrrole-2-carboxamide], for which the IC50 in data set [1] was determined as 0.00381 µM; in data set [2] it was 0.04 µM; in data set [3] it was 0.00598 µM; in data set [4], 0.00864 µM. The “24 hr Dox Inducible TNFaFLGluc 293FRT/TO: TNF/PD1” value in data set [2] is recorded as 10.5. In addition, in [4], the “24 hr Dox Inducible IL2FLGluc 293FRT/TO: IL2/PD1” value came out at 2.3. For the same molecule, the EC50 in data set [5] is 0.408 µM; in [6], greater than 25 µM. Besides, the “Liver Microsome Stability (Multiple Species): Rat - % Remaining after 30 min w/NADPH” value in data set [7] was 6.03%. Besides, in data set [8], the “Liver Microsome Stability (Multiple Species): Mouse - % Remaining after 30 min w/NADPH” value was 5.81%. In addition, in data set [9], the “Liver Microsome Stability (Multiple Species): Human - % Remaining after 30 min w/NADPH” value was determined as 3.41%. In addition, the “Liver Microsome Stability (Multiple Species): Monkey - % Remaining after 30 min w/NADPH” value in [10] came to 0.35%.
As to `O=C(Nc1nc([C@H]2CCCN2c2ccc(CO)cc2)cs1)c1cccn1Cc1ccnc(F)c1` [Compound A113, (R)-1-((2-fluoropyridin-4-yl)methyl)-N-(4-(1-(4-(hydroxymethyl)phenyl)pyrrolidin-2-yl)thiazol-2-yl)-1H-pyrrole-2-carboxamide], the IC50 in [1] came to 0.00982 µM; in data set [2] it was 0.136 µM; in data set [3], 0.0226 µM; in data set [4], 0.0179 µM. For the same molecule, the “24 hr Dox Inducible TNFaFLGluc 293FRT/TO: TNF/PD1” value in data set [2] amounted to 13.9. Besides, in data set [4], the “24 hr Dox Inducible IL2FLGluc 293FRT/TO: IL2/PD1” value is on record as 1.8. The EC50 in data set [5] is 0.615 µM; in data set [6] it was greater than 25 µM. Also, the “Liver Microsome Stability (Multiple Species): Rat - % Remaining after 30 min w/NADPH” value in data set [7] came out at 0.64%. In addition, the “Liver Microsome Stability (Multiple Species): Mouse - % Remaining after 30 min w/NADPH” value in data set [8] came to 4.74%. Also, the “Liver Microsome Stability (Multiple Species): Human - % Remaining after 30 min w/NADPH” value in data set [9] was 0.61%. In addition, the “Liver Microsome Stability (Multiple Species): Monkey - % Remaining after 30 min w/NADPH” value in [10] amounted to 1.3%.

The values are drawn from patent US20230286973A1, “PROTEIN SECRETION INHIBITORS” (KEZAR LIFE SCIENCES, priority 2020, published 2023).
